Columns and labels:
HeLa [1] = test: Cell cycle arrest in TNF-alpha-stimulated human HeLa cells transfected with NFkappaB-Luc assessed as accumulation at diploid S phase at 5 uM after 8 hrs by using propidium iodide staining by FACS analysis; type: functional
HeLa [2] = test: Cell cycle arrest in TNF-alpha-stimulated human HeLa cells transfected with NFkappaB-Luc assessed as accumulation at total S phase at 5 uM after 8 hrs by using propidium iodide staining by FACS analysis; type: functional
HeLa [3] = test: Effect on cell cycle arrest in TNF-alpha-stimulated human HeLa cells transfected with NFkappaB-Luc assessed as cell aggregate level at 5 uM after 8 hrs by using propidium iodide staining by FACS analysis; type: functional
HeLa [4] = test: Cell cycle arrest in TNF-alpha-stimulated human HeLa cells transfected with NFkappaB-Luc assessed as accumulation at diploid stage at 1 uM after 8 hrs by using propidium iodide staining by FACS analysis; type: functional
HeLa [5] = test: Cell cycle arrest in TNF-alpha-stimulated human HeLa cells transfected with NFkappaB-Luc assessed as accumulation at diploid G1 phase at 1 uM after 8 hrs by using propidium iodide staining by FACS analysis; type: functional
HeLa [6] = test: Cell cycle arrest in TNF-alpha-stimulated human HeLa cells transfected with NFkappaB-Luc assessed as accumulation at diploid S phase at 1 uM after 8 hrs by using propidium iodide staining by FACS analysis; type: functional
HeLa [7] = test: Cell cycle arrest in TNF-alpha-stimulated human HeLa cells transfected with NFkappaB-Luc assessed as accumulation at G2/G1 phase at 1 uM after 8 hrs by using propidium iodide staining by FACS analysis; type: functional
HeLa [8] = test: Effect on cell cycle arrest in TNF-alpha-stimulated human HeLa cells transfected with NFkappaB-Luc assessed as total background cell aggregate and debris level at 1 uM after 8 hrs by using propidium iodide staining by FACS analysis; type: functional
HeLa [9] = test: Effect on cell cycle arrest in TNF-alpha-stimulated human HeLa cells transfected with NFkappaB-Luc assessed as cell aggregate level at 1 uM after 8 hrs by using propidium iodide staining by FACS analysis; type: functional
HeLa [10] = test: Cell cycle arrest in TNF-alpha-stimulated human HeLa cells transfected with NFkappaB-Luc assessed as accumulation at diploid G2 phase at 0.5 uM after 8 hrs by using propidium iodide staining by FACS analysis; type: functional
HeLa [11] = test: Cell cycle arrest in TNF-alpha-stimulated human HeLa cells transfected with NFkappaB-Luc assessed as accumulation at G2/G1 phase at 0.5 uM after 8 hrs by using propidium iodide staining by FACS analysis; type: functional
HeLa [12] = test: Cell cycle arrest in TNF-alpha-stimulated human HeLa cells transfected with NFkappaB-Luc assessed as accumulation at diploid G1 phase at 0.1 uM after 8 hrs by using propidium iodide staining by FACS analysis; type: functional
HeLa [13] = test: Cell cycle arrest in TNF-alpha-stimulated human HeLa cells transfected with NFkappaB-Luc assessed as accumulation at diploid S phase at 0.1 uM after 8 hrs by using propidium iodide staining by FACS analysis; type: functional
HeLa [14] = test: Cell cycle arrest in TNF-alpha-stimulated human HeLa cells transfected with NFkappaB-Luc assessed as accumulation at total S phase at 0.1 uM after 8 hrs by using propidium iodide staining by FACS analysis; type: functional
HeLa [15] = test: Effect on cell cycle arrest in TNF-alpha-stimulated human HeLa cells transfected with NFkappaB-Luc assessed as total background cell aggregate and debris level at 0.1 uM after 8 hrs by using propidium iodide staining by FACS analysis; type: functional
HeLa [16] = test: Cell cycle arrest in TNF-alpha-stimulated human HeLa cells transfected with NFkappaB-Luc assessed as accumulation at diploid stage at 0.05 uM after 8 hrs by using propidium iodide staining by FACS analysis; type: functional
HeLa [17] = test: Cell cycle arrest in TNF-alpha-stimulated human HeLa cells transfected with NFkappaB-Luc assessed as accumulation at diploid G1 phase at 0.05 uM after 8 hrs by using propidium iodide staining by FACS analysis; type: functional
HeLa [18] = test: Cell cycle arrest in TNF-alpha-stimulated human HeLa cells transfected with NFkappaB-Luc assessed as accumulation at G2/G1 phase at 0.05 uM after 8 hrs by using propidium iodide staining by FACS analysis; type: functional
HeLa [19] = test: Effect on cell cycle arrest in TNF-alpha-stimulated human HeLa cells transfected with NFkappaB-Luc assessed as cell aggregate level at 0.05 uM after 8 hrs by using propidium iodide staining by FACS analysis; type: functional
[20] = Cytotoxicity against human whole blood lymphocytes assessed as survival cell count in millions at 10 uM after 24 hrs by trypan blue staining-based hemocytometry
[21] = Cytotoxicity against IL-1-beta-stimulated human whole blood lymphocytes assessed as survival cell count in millions at 3 uM after 24 hrs by trypan blue staining-based hemocytometry
[22] = Inhibition of NF-kappaB-mediated gene transcription expressed in TNF-alpha-stimulated human HeLa cells for 30 mins before TNFalpha challenge measured after 8 hrs by steady-glo luciferase reporter gene assay; type: cell-based
HeLa [23] = test: Cell cycle arrest in human HeLa cells transfected with NFkappaB-Luc assessed as accumulation at diploid stage at 20 uM after 8 hrs by using propidium iodide staining by FACS analysis; type: functional
HeLa [24] = test: Effect on cell cycle arrest in human HeLa cells transfected with NFkappaB-Luc assessed as cell aggregate level at 20 uM after 8 hrs by using propidium iodide staining by FACS analysis; type: functional
HeLa [25] = test: Cell cycle arrest in TNF-alpha-stimulated human HeLa cells transfected with NFkappaB-Luc assessed as accumulation at diploid G1 phase at 20 uM after 8 hrs by using propidium iodide staining by FACS analysis; type: functional
HeLa [26] = test: Cell cycle arrest in TNF-alpha-stimulated human HeLa cells transfected with NFkappaB-Luc assessed as accumulation at diploid S phase at 20 uM after 8 hrs by using propidium iodide staining by FACS analysis; type: functional
HeLa [27] = test: Cell cycle arrest in TNF-alpha-stimulated human HeLa cells transfected with NFkappaB-Luc assessed as accumulation at total S phase at 20 uM after 8 hrs by using propidium iodide staining by FACS analysis; type: functional
HeLa [28] = test: Effect on cell cycle arrest in TNF-alpha-stimulated human HeLa cells transfected with NFkappaB-Luc assessed as cell aggregate level at 20 uM after 8 hrs by using propidium iodide staining by FACS analysis; type: functional
HeLa [29] = test: Cell cycle arrest in TNF-alpha-stimulated human HeLa cells transfected with NFkappaB-Luc assessed as accumulation at diploid stage at 10 uM after 8 hrs by using propidium iodide staining by FACS analysis; type: functional
HeLa [30] = test: Cell cycle arrest in TNF-alpha-stimulated human HeLa cells transfected with NFkappaB-Luc assessed as accumulation at G2/G1 phase at 10 uM after 8 hrs by using propidium iodide staining by FACS analysis; type: functional
HeLa [31] = test: Effect on cell cycle arrest in TNF-alpha-stimulated human HeLa cells transfected with NFkappaB-Luc assessed as total background cell aggregate and debris level at 10 uM after 8 hrs by using propidium iodide staining by FACS analysis; type: functional
HeLa [32] = test: Effect on cell cycle arrest in TNF-alpha-stimulated human HeLa cells transfected with NFkappaB-Luc assessed as cell debris level at 10 uM after 8 hrs by using propidium iodide staining by FACS analysis; type: functional

For `CCOC(=O)[C@]1(c2ccccc2)N=C(c2ccccc2)N(Cc2ccccc2)[C@@H]1c1ccccc1` (racemic), the Activity (HeLa [1]) was 19.8%, the Activity (HeLa [2]) was 19.8% and the Activity (HeLa [3]) was 0%. It also gave an Activity (HeLa [4]) of 100%, an Activity (HeLa [5]) of 63.22% and an Activity (HeLa [6]) of 22.9%. It also gave an Activity (HeLa [7]) of 1.91%, an Activity (HeLa [8]) of 1.87% and an Activity (HeLa [9]) of 0%. The Activity (HeLa [10]) was 13.4%, the Activity (HeLa [11]) was 1.91% and the Activity (HeLa [12]) was 64.5%. The Activity (HeLa [13]) was 21.47%, the Activity (HeLa [14]) was 21.47% and the Activity (HeLa [15]) was 0.58%. It also gave an Activity (HeLa [16]) of 100%, an Activity (HeLa [17]) of 64.3% and an Activity (HeLa [18]) of 1.91%. For the same compound, the Activity (HeLa [19]) was 0%, the Activity [20] was 1.04 mL⁻¹ and the Activity [21] was 1.06 mL⁻¹. The EC50 [22] was 2500 nM, the Activity (HeLa [23]) was 100% and the Activity (HeLa [24]) was 0%. The Activity (HeLa [25]) was 65.96%, the Activity (HeLa [26]) was 19.29% and the Activity (HeLa [27]) was 19.29%. It also gave an Activity (HeLa [28]) of 0%, an Activity (HeLa [29]) of 100% and an Activity (HeLa [30]) of 1.91%. The Activity (HeLa [31]) was 6.27% and the Activity (HeLa [32]) was 15.28%.
